# pIC50: −log10 of the molar value.
# Legend:
# human recombinant PLK4 = human recombinant PLK4 (Homo sapiens (Human), UniProt O00444); test: PLK4 Biochemical Assay (ADP-Glo); conditions: 0.5 nM PLK4, 8.0 µM ATP, 4.7 µM MBP, 6 hours at RT
# In short: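 Luminescent ADP-Glo detection quantified ADP production, with ATP depletion for 40 min and detection for 30 min at room temperature. Compound and PLK4 (1.0 nM stock addition) were preincubated 15 min in HEPES pH 7.5 buffer containing MgCl2, EGTA, DTT, Brij-35 and BSA. IC50 values were obtained by four-parameter nonlinear regression.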
# CHP-134 cells = test: CHP134 CellTiter-Glo (CTG) Assay; assay type: cell-based; conditions: 5 days, viable cells by CellTiter-Glo
# Protocol: Cells were seeded (200 cells/well) in 384-well plates for 16 hours. On day two, nine serial 1:3 compound dilutions were made in DMSO in a 96-well plate. The compounds were then further diluted into growth media using a BRAVO robot (Agilent, Santa Clara, CA). The diluted compounds were then added to quadruplicate wells in the 384-well cell plate and incubated at 37° C. and 5% CO2. After 5 days, relative numbers of viable cells were measured by luminescence using CellTiter-Glo® (Promega) according to the manufacturer’s instructions and read on a SPARK Multimode Microplate Reader (Tecan, Mannedorf Switzerland). The IC50 calculations for the values reported in Table 2 were carried out using Prism 6.0 software (GraphPad, San Diego).
# [1] = molecular target: human recombinant Aurora A (Homo sapiens (Human), UniProt O14965); test: Aurora A Kinase Biochemical Assay (ADP-Glo); conditions: ratio of Aurora A IC50 to PLK4 IC50 (selectivity)
# [2] = molecular target: human recombinant Aurora B (Homo sapiens (Human), UniProt Q96GD4); test: Aurora B Kinase Biochemical Assay (ADP-Glo); conditions: ratio of Aurora B IC50 to PLK4 IC50 (selectivity)
# In short: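 IC50 derived by four-parameter nonlinear fit of ADP-Glo luminescence (ADP produced). Compound was preincubated 15 min at RT with 20 nM recombinant human Aurora B, in 50 mM HEPES pH 7.5, 10 mM MgCl2, 1 mM EGTA, 1 mM DTT, 0.01% Brij-35/BSA.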
# human recombinant Aurora B, sequence (Q96GD4 whole entry): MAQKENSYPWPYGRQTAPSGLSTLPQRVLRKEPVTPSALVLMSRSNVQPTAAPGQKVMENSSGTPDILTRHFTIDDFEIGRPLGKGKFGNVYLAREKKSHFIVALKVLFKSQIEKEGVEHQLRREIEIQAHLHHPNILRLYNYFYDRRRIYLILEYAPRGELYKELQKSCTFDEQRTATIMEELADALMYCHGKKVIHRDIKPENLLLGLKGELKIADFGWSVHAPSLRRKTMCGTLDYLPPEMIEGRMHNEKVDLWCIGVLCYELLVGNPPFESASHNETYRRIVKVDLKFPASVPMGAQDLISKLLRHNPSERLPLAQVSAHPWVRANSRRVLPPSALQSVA
# human recombinant Aurora A, sequence (O14965 whole entry): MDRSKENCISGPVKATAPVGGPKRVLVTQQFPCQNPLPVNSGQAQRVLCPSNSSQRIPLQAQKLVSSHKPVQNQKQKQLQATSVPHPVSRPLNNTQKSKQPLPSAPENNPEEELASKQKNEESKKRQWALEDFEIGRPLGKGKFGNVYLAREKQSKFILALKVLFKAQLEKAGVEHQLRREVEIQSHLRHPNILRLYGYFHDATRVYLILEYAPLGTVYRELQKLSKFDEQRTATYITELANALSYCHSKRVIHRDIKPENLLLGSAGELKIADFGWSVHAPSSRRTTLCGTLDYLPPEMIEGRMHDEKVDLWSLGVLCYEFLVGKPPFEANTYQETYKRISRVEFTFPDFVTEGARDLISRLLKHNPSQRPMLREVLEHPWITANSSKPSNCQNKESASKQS
# human recombinant PLK4, sequence (O00444 whole entry): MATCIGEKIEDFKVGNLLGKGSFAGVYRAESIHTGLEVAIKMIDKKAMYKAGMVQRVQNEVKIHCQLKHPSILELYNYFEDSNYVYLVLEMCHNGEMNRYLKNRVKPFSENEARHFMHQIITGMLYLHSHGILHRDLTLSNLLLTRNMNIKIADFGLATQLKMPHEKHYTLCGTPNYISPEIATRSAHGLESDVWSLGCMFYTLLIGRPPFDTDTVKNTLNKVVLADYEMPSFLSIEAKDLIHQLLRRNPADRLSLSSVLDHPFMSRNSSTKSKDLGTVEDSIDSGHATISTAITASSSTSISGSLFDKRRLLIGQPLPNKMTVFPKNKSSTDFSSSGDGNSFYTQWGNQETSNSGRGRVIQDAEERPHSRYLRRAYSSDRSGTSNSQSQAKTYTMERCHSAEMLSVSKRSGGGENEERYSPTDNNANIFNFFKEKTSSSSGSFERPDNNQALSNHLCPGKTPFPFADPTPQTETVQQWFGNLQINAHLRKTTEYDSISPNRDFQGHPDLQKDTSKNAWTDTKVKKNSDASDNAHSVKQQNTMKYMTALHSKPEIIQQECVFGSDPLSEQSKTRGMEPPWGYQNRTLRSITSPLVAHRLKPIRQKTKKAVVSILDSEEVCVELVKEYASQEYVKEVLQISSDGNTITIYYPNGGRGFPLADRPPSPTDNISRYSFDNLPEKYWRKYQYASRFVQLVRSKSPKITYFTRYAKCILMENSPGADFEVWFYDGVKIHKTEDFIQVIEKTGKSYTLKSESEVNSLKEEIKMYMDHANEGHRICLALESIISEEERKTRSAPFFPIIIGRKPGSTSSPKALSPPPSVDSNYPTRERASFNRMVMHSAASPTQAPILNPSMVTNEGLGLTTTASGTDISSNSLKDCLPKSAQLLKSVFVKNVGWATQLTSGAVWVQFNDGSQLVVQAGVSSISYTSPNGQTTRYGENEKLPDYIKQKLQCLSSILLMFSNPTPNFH
Compound,pIC50 (human recombinant PLK4),[Aurora A IC50 (nM)]/[PLK4 IC50 (nM)] [1],[Aurora B IC50 (nM)]/[PLK4 IC50 (nM)] [2],"pIC50 (CHP-134 cells; Homo sapiens, CHP-134, 120 h)",pIC50 (CHP-134 cells)
"COc1ccc2c(c1)[C@]1(C[C@H]1c1ccc3c(Nc4nc(C5CCOC5)ncc4OC)n[nH]c3c1)C(=O)N2 (single isomer, unassigned) [Example 201]",8.77,485.6389,229.0739,6.34,
"COc1ccc2c(c1)[C@]1(C[C@H]1c1ccc3c(Nc4ccc([S+](C)[O-])nc4OC)n[nH]c3c1)C(=O)N2 (single isomer, unassigned) [Example 239]",8.77,1429.5857,466.8047,,6.02
"COc1ccc2c(c1)[C@]1(C[C@H]1c1ccc3c(Nc4ccc([S+](C)[O-])nc4OC)n[nH]c3c1)C(=O)N2 (single isomer, unassigned) [Example 240]",8.66,735.1996,102.4323,,6.37
"COc1ccc2c(c1)[C@]1(C[C@H]1c1ccc3c(Nc4nc(Cl)ncc4OC)n[nH]c3c1)C(=O)N2 [Example 10, (1R,2S)-2-{3-[(2-Chloro-5-methoxypyrimidin-4-yl)amino]-1H-indazol-6-yl}-5′-methoxyspiro[cyclopropane-1,3′-indol]-2′(1′H)-one]",8.80,954.6314,103.0876,6.36,
"COc1ccc2c(c1)[C@]1(C[C@H]1c1ccc3c(Nc4ncnc(N5CCN(C)CC5)c4Cl)n[nH]c3c1)C(=O)N2 [Example 20, (1R,2S)-2-(3-{[5-chloro-6-(4-methylpiperazin-1-yl)pyrimidin-4-yl]amino}-1H-indazol-6-yl)-5′-methoxyspiro[cyclopropane-1,3′-indol]-2′(1′H)-one]",8.65,4489.796,306.8323,6.58,
"COc1ccc2c(c1)[C@]1(C[C@H]1c1ccc3c(Nc4nc(OC)ncc4Cl)n[nH]c3c1)C(=O)N2 [Example 23, (1R,2S)-2-{3-[(5-chloro-2-methoxypyrimidin-4-yl)amino]-1H-indazol-6-yl}-5′-methoxyspiro[cyclopropano-1,3′-indol]-2′(1′H)-one]",8.30,215.5309,170.7409,7.34,
"COc1ccc2c(c1)[C@]1(C[C@H]1c1ccc3c(Nc4ncnc(N5CC(O)C5)c4Cl)n[nH]c3c1)C(=O)N2 [Example 46, (1R,2S)-2-(3-{[5-chloro-6-(3-hydroxyazetidin-1-yl)pyrimidin4-yl]amino}-1H-indazol-6-yl)-5′-methoxyspiro[cyclopropane-1,3′-indol]-2′(1′H)-one]",8.60,2542.642,135.8985,5.84,
"COc1ccc2c(c1)[C@]1(C[C@H]1c1ccc3c(Nc4ncnc(N5CC(OC)C5)c4Cl)n[nH]c3c1)C(=O)N2 [Example 47, (1R,2S)-2-(3-{[5-chloro-6-(3-methoxyazetidin-1-yl)pyrimidin-4-yl]amino}-1H-indazol-6-yl)-5′-methoxyspiro[cyclopropane-1,3′-indol]-2′(1′H)-one]",8.89,1879.416,104.3011,6.21,
"COc1ccc2c(c1)[C@]1(C[C@H]1c1ccc3c(Nc4ncnc(N5C[C@@H](C)O[C@@H](C)C5)c4OC)n[nH]c3c1)C(=O)N2 [Example 52, (lR,2S)-2-[3-({6-[(2R,6S)-2,6-dimethylmorpholin-4-yl]-5-methoxypyrimidin-4-yl}amino)-1H-indazol-6-yl]-5′-methoxyspiro[cydopropane-1,3′-indol]-2′(1′H)-one]",8.15,2009.699,55.0706,5.65,
"COc1ccc2c(c1)[C@]1(C[C@H]1c1ccc3c(Nc4ncnc(N5CCS(=O)(=O)CC5)c4OC)n[nH]c3c1)C(=O)N2 [Example 54, (1R,2S)-2-(3-((6-(1,1-dioxidothiomorpholino)-5-methoxypyrimidin-4-yl)amino)-1H-indazol-6-yl)-5′-methoxyspiro[cydopropane-1,3′-indolin]-2′-one]",7.48,1504.212,117.2684,5.00,
"COc1ccc2c(c1)[C@]1(C[C@H]1c1ccc3c(Nc4nc(CCO)cnc4OC)n[nH]c3c1)C(=O)N2 [Example 56, (1R,2S)-2-(3-{[6-(2-hydroxyethyl)-3-methoxypyrazin-2-yl]amino}-1H-indazol-6-yl)-5′-methoxyspiro[cyclopropane-1,3′-indol]-2′(1′H)-one]",8.42,1047.694,423.7686,5.57,
"COc1ccc2c(c1)[C@]1(C[C@H]1c1ccc3c(Nc4nc(C)nc(N5CCS(=O)(=O)CC5)c4Cl)n[nH]c3c1)C(=O)N2 [Example 58, 4-[5-chloro-6-({6-[(1R,2S)-5′-methoxy-2′-oxo-1,2′-dihydrospiro[cyclopropane-1,3′-indol]-2-yl]-1H-indazol-3-yl}amino)-2-methylpyrimidin-4-yl]-1λ6-thiomorpholine-1,1-dione]",8.64,1393.782,140.6736,6.80,

# More lines, main results first:
pIC50 (human recombinant PLK4),[Aurora A IC50 (nM)]/[PLK4 IC50 (nM)] [1],[Aurora B IC50 (nM)]/[PLK4 IC50 (nM)] [2],Compound,"pIC50 (CHP-134 cells; Homo sapiens, CHP-134, 120 h)",pIC50 (CHP-134 cells)
9.16,4791.187,240.6394,"COc1ccc2c(c1)[C@]1(C[C@H]1c1ccc3c(Nc4ncnc(N5CCOCC5)c4Cl)n[nH]c3c1)C(=O)N2 [Example 9, (1R,2S)-2-(3-{[5-Chloro-6-(morpholin-4-yl)pyrimidin-4-yl]amino}-1H-indazol-6-yl)-5′-methoxyspiro[cyclopropane-1,3′-indol]-2′(1′H)-one]",7.00,
8.31,3277.276,77.87,"COc1ccc2c(c1)[C@]1(C[C@H]1c1ccc3c(Nc4ncnc(N5CCOCC5)c4OC)n[nH]c3c1)C(=O)N2 [Example 11, (1R,2S)-5′-Methoxy-2-(3-{[5-methoxy-6-(morpholin-4-yl)pyrimidin-4-yl)amino}-1H-indazol-6-yl)spiro[cyclopropane-1,3′-indol]-2′(1′H)-one]",5.53,
8.30,,,"COc1ccc2c(c1)[C@]1(C[C@H]1c1ccc3c(Nc4ncnc(N5CCCCC5)c4OC)n[nH]c3c1)C(=O)N2 [Example 12, (1R.2S)-5′-Methoxy-2-(3-{[5-methoxy-6-(piperidin-1-yl)pyrimidin-4-yl]amino}-1H-indazol-6-yl)spiro[cyclopropane-1,3′-indol]-2′(1′H)-one]",5.69,
8.57,2257.47,471.4128,"COc1ccc2c(c1)[C@]1(C[C@H]1c1ccc3c(Nc4nc(C)nc(N5CCOCC5)c4OC)n[nH]c3c1)C(=O)N2 [Example 41, (1R,2S)-5′-methoxy-2-(3-{[5-methoxy-2-methyl-6-(morpholin-4-yl)pyrimidin-4-yl]amino}-1H-indazol-6-yl)spiro[cyclopropane-1,3′-indol]-2′(1′H)-one]",6.07,
8.48,1948.123,292.3406,"COc1ccc2c(c1)[C@]1(C[C@H]1c1ccc3c(Nc4nc(Cl)nc(N5CCOCC5)c4OC)n[nH]c3c1)C(=O)N2 [Example 48, (1R,2S)-2-(3-{[2-chloro-5-methoxy-6-(morpholin-4-yl)pyrimidin-4-yl]amino}-1H-indazol-6-yl)-5′-metboiyspiro[cyclopropane-1,3′-indol]-2′(1′H)-one]",6.13,
8.91,3031.656,1241.883,"COc1ccc2c(c1)[C@]1(C[C@H]1c1ccc3c(Nc4nc(C5CC5)nc(N5CCOCC5)c4OC)n[nH]c3c1)C(=O)N2 [Example 51, (1R,2S)-2-(3-1[2-cyclopropyl-5-methoxy-6-(morpholin-4-yl)pyrimidin-4-yl]aminol-1H-indezol-6-yl)-5′-methoxyapiro[cyclopropane-1,3′-indol]-2′(1′H)-one]",6.84,
8.29,3527.559,831.2992,"COc1ccc2c(c1)[C@]1(C[C@H]1c1ccc3c(Nc4nc(C)nc(N5CCS(=O)(=O)CC5)c4OC)n[nH]c3c1)C(=O)N2 [Example 57, 4-[5-methoxy-6-({6-[(1R,2S)-5′-methoxy-2′-oxo-1′,2′-dihydrospiro[cyclopropane-1,3′-indol]-2-yl]-1H-indazol-3-yl}amino)-2-methylpyrimidin-4-yl]-1λ6-thiomorpholine-1,1-dione]",5.40,
